For series [1], the target named is T1, Flavin-containing monooxygenase 5 (Homo sapiens, UniProt P49326).
T1 sequence (P49326 whole entry): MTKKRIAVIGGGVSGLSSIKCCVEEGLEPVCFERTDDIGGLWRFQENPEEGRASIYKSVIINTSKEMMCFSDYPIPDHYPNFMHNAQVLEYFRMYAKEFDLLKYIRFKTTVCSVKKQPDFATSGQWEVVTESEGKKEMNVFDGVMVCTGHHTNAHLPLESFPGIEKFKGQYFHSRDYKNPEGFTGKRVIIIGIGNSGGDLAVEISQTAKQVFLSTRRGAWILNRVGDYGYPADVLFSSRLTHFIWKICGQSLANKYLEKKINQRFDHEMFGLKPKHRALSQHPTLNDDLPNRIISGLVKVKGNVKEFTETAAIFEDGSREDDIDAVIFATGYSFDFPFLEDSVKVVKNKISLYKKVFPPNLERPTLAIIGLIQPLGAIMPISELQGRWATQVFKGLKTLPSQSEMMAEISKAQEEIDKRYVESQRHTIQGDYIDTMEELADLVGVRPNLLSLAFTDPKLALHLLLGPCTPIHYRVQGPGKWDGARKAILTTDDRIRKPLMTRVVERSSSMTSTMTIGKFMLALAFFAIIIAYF
The series is described as follows: Drug level assessed as human recombinant FMO5-mediated compound formation from 10 uM ER-879819 in presence NADPH after 60 mins by LC-MS/MS method. In kind it is ADME. The note with it: recombinant enzyme, 1 h.

The target in series [2] is T1, Flavin-containing monooxygenase 5. The series is described as follows: Drug level assessed as human recombinant FMO5-mediated compound formation from 10 uM ER-879819 in presence NADH after 60 mins by LC-MS/MS method. In kind it is ADME. Conditions: recombinant enzyme, 1 h.
A short description of series [3]: Drug level in dog hepatocytes treated with 50 uM E7016 after 120 mins in presence of NADPH by LC-MS/MS method. In kind it is ADME, cell-based, Canis lupus familiaris, Hepatocyte. The note with it: 2 h.
The test system of series [4] is Hepatocyte. The series is described as follows: Drug level in rat hepatocytes treated with 50 uM E7016 after 120 mins in presence of NADPH by LC-MS/MS method. In kind it is ADME, cell-based. The note with it: 2 h.
For series [5], the system named is Hepatocyte. Briefly: Drug level in human hepatocytes treated with 50 uM E7016 after 120 mins in presence of NADPH by LC-MS/MS method. In kind it is ADME, cell-based. The note with it: 2 h.
A short description of series [6]: Drug level in dog liver S9 fraction treated with 50 uM E7016 after 60 mins in presence of NAD+ by LC-MS/MS method. In kind it is ADME, subcellular, Canis lupus familiaris. The note with it: s9, 1 h.
Series [7] is described as follows: Drug level in dog liver S9 fraction treated with 50 uM E7016 after 60 mins in presence of NADP+ by LC-MS/MS method. Conditions: s9, 1 h. In kind it is ADME, subcellular, Canis lupus familiaris.
Series [8] is described as follows: Drug level in human liver S9 fraction treated with 50 uM E7016 after 60 mins in presence of NAD+ by LC-MS/MS method. Conditions: s9, 1 h. In kind it is ADME, subcellular.
Series [9] can be described thus: Drug level in human liver S9 fraction treated with 50 uM E7016 after 60 mins in presence of NADP+ by LC-MS/MS method. In kind it is ADME, subcellular. The note with it: s9, 1 h.
Series [10] concerns the target T1, Flavin-containing monooxygenase 5. Briefly: Drug metabolism assessed as human recombinant FMO5-mediated compound formation from 50 uM E7016 in presence of rat liver cytosolic fractions after 60 mins by LC-MS/MS method. In kind it is ADME, tissue-based. The note with it: recombinant enzyme, 1 h.
Series [11] has the same target. The series is described as follows: Drug metabolism assessed as human recombinant FMO5-mediated compound formation from 50 uM E7016 in presence of human liver cytosolic fractions after 60 mins by LC-MS/MS method. In kind it is ADME, tissue-based. The note with it: recombinant enzyme, 1 h.
Series [12] has the same target. Briefly: Drug metabolism assessed as human recombinant FMO5-mediated compound formation from 50 uM E7016 in presence of dog liver cytosolic fractions after 60 mins by LC-MS/MS method. The note with it: recombinant enzyme, 1 h. In kind it is ADME, tissue-based.
The subject of series [13] is Liver microsome. Briefly: Drug level in dog liver microsomes treated with 10 uM ER-879819 after 60 mins in presence of NADH by LC-MS/MS method. In kind it is ADME, Canis lupus familiaris. The note with it: 1 h. In general terms: Microsomes from liver hold many membrane-bound enzymes, among them those of drug oxidation.
Series [14] has as its system Liver microsome. The series is described as follows: Drug level in human liver microsomes treated with 10 uM ER-879819 after 60 mins in presence of NADH by LC-MS/MS method. In kind it is ADME. Conditions: 1 h.
The nature of series [15]: Retention time of the compound by HPLC analysis. In kind it is physicochemical.

For `O=C(O)CCN(CCO)Cc1ccc2c(c1)-c1n[nH]c(=O)c3cccc(c13)O2`, the Drug metabolism result (in series [1]; in series [2]; in series [3]; in the series with Hepatocyte [4]; with Hepatocyte [5]; in series [6]) was “metabolite_detected” each time. Also, the Drug metabolism result in [7], in series [8], in [9], in [10], in series [11] and in [12] was “metabolite_detected” throughout. For the same molecule, the Drug metabolism entry with Liver microsome [13] and in the series with Liver microsome [14] was “metabolite_detected” throughout.

In [15], `Cc1ccc2c(c1)-c1n[nH]c(=O)c3cccc(c13)O2` showed a Retention_time of 10.7 min.
